According to patent US6864286B2, “Inhibitors of the EGF-receptor tyrosine kinase and methods for their use” (Parker Hughes Institute, priority 1998, dated 2005):
“Also recorded” adds a separate entry of the source.

Test system: MDA-MB-231 cells
Experiment: Confocal laser scanning microscopy of treated cells
Assay type: cell-based, human
Details: MDA-MB-231, 100 μM, 24 hours, α-tubulin / TOTO-3 staining
Protocol: Immunofluorescence was used to examine the morphologic features of breast cancer cells treated with LFM and its analogs. Before the experiment, cells were trypsinized from rapidly growing tissue culture flasks and seeded onto sterile 22 mm^2 coverslips in 6-well culture plates. Cells on coverslips were returned to the incubator for 24 hours prior to treatment. The following day, drugs were added from a stock solution made in DMSO to a final concentration of 100 μM. Final DMSO concentration was 0.1% in both test samples and controls. Cells were returned to a 37° C. incubator for 24 hours before further processing.
At 24 hours, coverslips were fixed in −20° C. methanol for 15 minutes followed by a 15 minute incubation in phosphate buffered saline +0.1% Triton X-100(PBS-Tx). Coverslips were next incubated with a monoclonal antibody against α-tubulin (Sigma Chemical Co, St. Louis, Mo.) at a dilution of 1:1000 for 40 minutes in a humidified chamber at 37° C. Coverslips were washed for 15 minutes in PBS-Tx followed by a 40 min incubation with a goat anti-mouse IgG antibody conjugated to FITC (Amersham Corp., Arlington Heights, Ill.). The coverslips were again rinsed in PBS-Tx and incubated with 5 μM TOTO-3 (Molecular Probes, Eugene Oreg.) for 20 minutes to label the nuclear DNA. […]

## C/C(O)=C(\C#N)C(=O)Nc1ccc(OC(F)(F)F)cc1 [LFM-A12, α-Cyano-β-hydroxy-β-methyl-N-[4-(trifluoromethoxy)phenyl]-propenamide]
  morphology and microtubular organization of treated cells: much smaller and had an abnormal shape with large cytoplasmic vacuoles; also recorded: marked shrinkage with disruption of microtubules
